Results published in BindingDB's records for patent US10766864 (Nektar Therapeutics, 2020).
pIC50: −log10 of the molar value.

Biological target: Mu-type opioid receptor (Homo sapiens, UniProt P35372)
Test: Receptor Binding Assay
Description: Affinities of various compounds were measured in vitro using competitive radioligand binding assays. Serial dilutions of test compounds were incubated with membranes prepared from CHO-K1 cells expressing the mu opioid receptor (MOR; for opioid receptor binding) or rat forebrain membranes (for NMDA receptor binding). 2 nM [3H] Naloxone (MOR) or 0.2 nM [3H] MK801 (NMDA) were used as the specific, competitive radioligands. 10 uM Naloxone (MOR), or 10 uM MK801 (NMDA) was used to determine non-specific binding. Bound radioactivity was measured using a scintillation counter & IC50 values for test compounds were determined by non-linear regression analysis using a one-site competition model (Graph Pad Prizm). Due to each test compound being solubilized in a buffered system for the assay, the results presented herein reflect the free base activity.

Mu-type opioid receptor, sequence (P35372 whole entry): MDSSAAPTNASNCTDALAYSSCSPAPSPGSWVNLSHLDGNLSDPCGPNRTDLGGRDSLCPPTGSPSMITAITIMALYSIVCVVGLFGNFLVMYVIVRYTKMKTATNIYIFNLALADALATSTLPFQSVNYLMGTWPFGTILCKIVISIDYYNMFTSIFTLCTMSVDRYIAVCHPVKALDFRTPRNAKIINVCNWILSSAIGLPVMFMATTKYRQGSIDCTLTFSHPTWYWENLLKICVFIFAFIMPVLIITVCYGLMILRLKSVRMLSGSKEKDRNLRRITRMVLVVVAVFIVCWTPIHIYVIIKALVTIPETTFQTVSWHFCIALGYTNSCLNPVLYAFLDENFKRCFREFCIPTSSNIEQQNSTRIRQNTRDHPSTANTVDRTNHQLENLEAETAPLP

Compound: COCCOCCN1CC[C@]23CCCC[C@H]2[C@H]1Cc1cc2sc(N)nc2cc13 [US10766864, Example 97]
- pIC50: < 6.00
